Our source for the SC100 values is patent publication US8765770B2, “Substituted [1,2,4]triazolo[1,5-a]pyrimidines and their use as potassium channel modulators” (Ataxion, Inc., priority 2009, dated 2014).

The target of the assay is T1, hSK1 channels (Homo sapiens, UniProt Q92952).
T1 construct: expressed in transfected cells; host or cells: HEK293
Kind of assay: whole-cell patch-clamp recording of ionic current through SK channels (subtype 1) in HEK293 cells expressing hSK1. In kind it is cell-based. As to conditions: Stimulating Concentration required for increasing the baseline current by 100%. As to the method: The ionic current through small-conductance Ca^2+-activated K^+ channels (SK channels, subtype 1) is recorded using the whole-cell configuration of the patch-clamp technique in a classic patch-clamp set-up using HEK293 tissue culture cells expressing hSK1 channels as described in e.g. WO 2006/100212.
The SC100 value determined is defined as the Stimulating Concentration required for increasing the baseline current by 100%. The below SC100 values are an indication of the SK1 activating properties of the compounds of the invention.
A general note: In patch-clamp work, channel activity is measured electrically.

`CON=CNc1nc2nccc(C(C)Oc3ccccc3C)n2n1` (centres unmarked) [Example 1, N-{7-[1-(2-Methylphenoxy)ethyl]-[1,2,4]triazolo[1,5-a]pyrimidin-2-yl}-N′-methoxy-formamidine] showed an SC100 of 0.02 µM. Take `CON=CNc1nc2nccc(C(C)Oc3ccccc3)n2n1` (centres unmarked) [Example A, N-{7-[1-(Phenoxy)ethyl]-[1,2,4]triazolo[1,5-a]pyrimidin-2-yl}-N′-methoxy-formamidine]: the SC100 amounted to 0.20 µM.
